44 molecules from ChEMBL document CHEMBL3714720, “Inhibiting G-protein coupled receptor 6 kinase polypeptides” (2014) can be followed below.

The target of the experiment is G protein-coupled receptor kinase 6 (Homo sapiens, UniProt P43250). Description: Inhibition of human recombinant full-length GST-tagged human GRK6 using peptide substrate peptide-216 incubated for 7 hrs.

Bounds are passed on as bounds.

G protein-coupled receptor kinase 6, sequence (P43250 whole entry): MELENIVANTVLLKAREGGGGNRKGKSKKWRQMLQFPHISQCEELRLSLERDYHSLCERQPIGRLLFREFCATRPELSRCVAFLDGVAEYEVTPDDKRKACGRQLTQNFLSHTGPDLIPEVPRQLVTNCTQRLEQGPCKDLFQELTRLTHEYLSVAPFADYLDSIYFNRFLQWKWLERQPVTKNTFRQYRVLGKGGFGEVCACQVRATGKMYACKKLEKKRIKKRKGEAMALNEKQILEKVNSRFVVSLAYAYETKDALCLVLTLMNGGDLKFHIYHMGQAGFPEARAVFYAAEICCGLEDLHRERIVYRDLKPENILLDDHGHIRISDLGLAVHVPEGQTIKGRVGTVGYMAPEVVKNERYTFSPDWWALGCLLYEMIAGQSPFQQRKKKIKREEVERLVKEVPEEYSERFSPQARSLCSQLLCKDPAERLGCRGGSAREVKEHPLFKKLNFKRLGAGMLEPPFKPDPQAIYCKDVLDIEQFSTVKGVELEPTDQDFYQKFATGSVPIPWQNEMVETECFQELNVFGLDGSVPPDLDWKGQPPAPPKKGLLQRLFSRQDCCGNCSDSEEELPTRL

For orientation: IC50 means the concentration at which inhibition is half-maximal. For `COc1cccc(OC)c1-c1nnc(SCC(=O)O)[nH]1`, the half-inhibitory concentration (IC50) was over 100 µM.

For the molecule `COc1ccc([N+](=O)[O-])cc1-c1nnc(SCC(=O)O)[nH]1`, the IC50 is 77.5 µM.

Turning to `O=C(O)CSc1nnc(-c2cc([N+](=O)[O-])ccc2O)[nH]1`, the 50% inhibitory concentration (IC50) turned out to be 14.1 µM.

On to `COc1ccc(NC(c2ccccn2)c2ccc3cccnc3c2O)cc1` (centres undefined), for which the concentration for half-maximal inhibition (IC50) was 10.3 µM.

For `COc1cc(-c2nnc(SCC(=O)O)[nH]2)c([N+](=O)[O-])cc1OC`, the IC50 is over 100 µM.

On to `COc1ccc(-c2nnc(SCC(=O)O)[nH]2)c(OC)c1OC`, for which the IC50 is over 100 µM.

As for `CN(C)c1ccc(-c2nnc(SCC(=O)O)[nH]2)cc1`, the IC50 is over 100 µM.

On to `COc1ccc(OC)c(-c2nnc(SCC(=O)O)[nH]2)c1`, for which the IC50 is over 100 µM.

`Cc1coc(-c2ccccc2NS(=O)(=O)c2ccc(S(=O)(=O)N3CCCCCC3)cc2)c1`: the IC50 was over 60 µM.

With `Cc1cccc(-c2nnc(SCCC(=O)O)n2C)c1`, the IC50 was over 100 µM.

For `Cc1ccc(-c2nnc(SCC(=O)O)[nH]2)cc1[N+](=O)[O-]`, the IC50 came to 0.751 µM.

In the case of `COc1cc([N+](=O)[O-])cc(-c2nnc(SCC(=O)O)[nH]2)c1O`, the IC50 stood at 34.8 µM.

With `O=C(O)CSc1nnc(-c2ccccc2N2CCOCC2)[nH]1`, the IC50 was over 100 µM.

As for `CN1CCN(c2ccc(-c3nnc(SCC(=O)O)[nH]3)c(F)c2)CC1`, the IC50 is over 100 µM.

With `Cc1cccc(-c2nnc(SCC(=O)O)n2C)c1`, the IC50 was over 100 µM.

As to `COc1cc(N(C)C)ccc1-c1nnc(SCC(=O)O)[nH]1`, the IC50 is over 100 µM.

Consider `Cc1cccc(-c2n[nH]c(SCC(N)=O)n2)c1`, for which the IC50 was over 100 µM.

With `O=C(O)CSc1nnc(-c2cc(C(=O)O)ccc2O)[nH]1`, the IC50 was over 100 µM.

For the molecule `O=C(O)CSc1nnc(-c2ccccc2C(=O)O)[nH]1`, the IC50 was over 100 µM.

In the case of `COc1cccc(-c2nnc(SCC(=O)O)[nH]2)c1OC`, the IC50 is over 100 µM.

Consider `COC(=O)CSc1nnc(-c2cccc(C)c2)[nH]1`, for which the IC50 is over 100 µM.

For the molecule `Cc1cccc(-c2nnc(SCC(=O)N(C)C)[nH]2)c1`, the IC50 was over 100 µM.

Take `O=C(O)CSc1nnc(-c2cccc(C(=O)O)c2)[nH]1`: the IC50 was over 74 µM.

As to `COc1cc(OC)c(-c2nnc(SCC(=O)O)[nH]2)cc1OC`, the IC50 was over 100 µM.

On to `COc1ccc(-c2nnc(SCC(=O)O)[nH]2)c(OC)c1C`, for which the IC50 was over 100 µM.

As for `COc1ccc(-c2nnc(SCC(=O)O)[nH]2)cc1[N+](=O)[O-]`, the IC50 worked out at 1.05 µM.

On to `COc1cc(-c2nnc(SCC(=O)O)[nH]2)cc(F)c1O`, for which the IC50 was 3.3 µM.

In the case of `COc1cccc(O)c1-c1nnc(SCC(=O)O)[nH]1`, the IC50 is over 100 µM.

With `Cc1cccc(-c2nnc(SC(C)C(=O)O)n2C)c1` (centres undefined), the IC50 is over 100 µM.

Turning to `Cc1cccc(-c2nnc(SCCC(=O)O)[nH]2)c1`, the IC50 was over 100 µM.

As for `COc1cc(O)cc(OC)c1-c1nnc(SCC(=O)O)[nH]1`, the IC50 is over 100 µM.

Take `NC(=O)c1ccccc1-c1nnc(SCC(=O)O)[nH]1`: the half-inhibitory concentration (IC50) is over 100 µM.

In the case of `COC(=O)c1ccccc1-c1nnc(SCC(=O)O)[nH]1`, the IC50 is over 100 µM.

Consider `COc1c(F)cccc1-c1nnc(SCC(=O)O)[nH]1`, for which the IC50 was over 100 µM.

Regarding `COc1cc([N+](=O)[O-])ccc1-c1nnc(SCC(=O)O)[nH]1`, the IC50 was over 100 µM.

As for `O=C(O)CSc1nnc(-c2cccc([N+](=O)[O-])c2O)[nH]1`, the IC50 was over 70 µM.

Consider `COc1ccc(-c2nnc(SCC(=O)O)[nH]2)c(Cl)c1OC`, for which the IC50 was over 100 µM.

Consider `Cc1cccc(Oc2ccc(-c3nnc(SCC(=O)O)[nH]3)cc2[N+](=O)[O-])c1`, for which the concentration for half-maximal inhibition (IC50) was 3.58 µM.

With `O=C(O)CSc1nnc(-c2ccccc2OCCN2CCCC2)[nH]1`, the half-maximal inhibitory concentration (IC50) was over 100 µM.

Take `O=C(O)COc1ccccc1-c1nnc(SCC(=O)O)[nH]1`: the IC50 is over 100 µM.

As for `CC(=O)CSc1nnc(-c2cccc(C)c2)[nH]1`, the IC50 is over 100 µM.

For the molecule `COc1cccc(-c2nnc(SCC(=O)O)[nH]2)c1OCc1ccccc1`, the IC50 was over 100 µM.

Consider `CN(C)CCCOc1ccccc1-c1nnc(SCC(=O)O)[nH]1`, for which the IC50 is over 100 µM.

With `COc1cc(-c2nnc(SCC(=O)O)[nH]2)ccc1F`, the IC50 is 4.52 µM.
